# Experimental data taken from PMC10052035, “Virtual Screening, Structural Analysis, and Formation Thermodynamics of Carbamazepine Cocrystals” (Pharmaceutics, 2023).
# Where two headings read alike, the source gives them in different places.
# What was measured:
# [1] = cited from earlier work
# [2] = Solubility of cocrystals and their constituents in organic solvents (shake-flask, HPLC); details: for solubility at 48 h: organic solvent or mixture, thermodynamic from solid; for Cp∙10^2, solubility of pure component: 293.15 K, value is C∙10^2
# Experimental: For the [CBZ + 3AcAmBA] (1:1) cocrystal, methanol was used. For [CBZ + 4AcAmBA] (1:1), all the experiments were performed in acetonitrile. An excess of the solid was placed in an Eppendorf tube, and 2 mL of solvent was added. The resulting suspension was shaken in a ThermoMixer C (Eppendorf, Hamburg, Germany) at 800 rpm for 48 h at the specified temperature. Subsequently, the saturated solution was separated using a 0.22 μm PTEF filter, diluted, and analyzed using HPLC. The solid phases after the experiment were collected and characterized by PXRD. Each experiment was repeated three times.
# The HPLC was performed on an LC-20 AD Shimadzu Prominence model (Shimadzu, Kyoto, Japan) equipped with a PDA detector and a Luna C-18 column (150 mm × 4.6 mm i.d., 5 μm particle size, and 100 Å pore size). The column temperature was set to 40 °C. To achieve the proper separation of the cocrystal components, different ratios of the mobile phase, consisting of acetonitrile and a 0.1% aqueous solution of trifluoroacetic acid (35:65 v/v), were used. The flow rate was 1.0 mL·min^−1, and the injection volume was 20 μL. The UV detection of carbamazepine, 2-acetamidobenzoic acid, 3-acetamidobenzoic acid, and 4-acetamidobenzoic acid was carried out at the wavelengths of 285 nm, 249 nm, 220 nm, and 266 nm, respectively.
# [3] = cited from earlier work; remark: listed apart in the source
# [4] = assay type: physicochemical; details: acidic conditions (pH 2.0), 310.2 K
# Experimental: The saturation shake-flask method was used to measure the aqueous solubility of the CBZ cocrystals in a pH 2.0 buffer solution at the eutectic point, where drug and cocrystal are in equilibrium with the solution. The eutectic point between the cocrystal and the drug was reached by suspending 80 mg of the cocrystal and 30 mg of CBZ in 2 mL of the buffer solution. The obtained suspension was stirred continuously for 72 h at 37.0 ± 0.1 °C. After equilibration, the final pH of the solution was measured. The suspension was diluted with the mobile phase after being filtered through a […] PTEF filter. Concentrations of compounds were analyzed by HPLC. The solid phases after the experiment were characterized by PXRD.
# The column temperature was set to 40 °C.
compound,measurement,setting,value
NCC(=O)O.NCC(=O)O.O=C(O)/C=C/C(=O)O [[Glycine + Fu maric acid] (2:1)],TΔformS,"[1]; 298 K, ref [17]",-0.335 ± 0.14 kcal/mol
same,ΔformG,"[1]; 298 K, ref [17]",-1.05 ± 0.072 kcal/mol
same,ΔformH,"[1]; 298 K, ref [17]",-1.39 ± 0.12 kcal/mol
"NC(=O)N1c2ccccc2C=Cc2ccccc21 [CBZ, carbamazepine]",solubility at 48 h,"[2]; acetonitrile, 20 °C",142 ± 3 mM
same,solubility at 48 h,"[2]; acetonitrile, 25 °C",162 ± 4 mM
same,solubility at 48 h,"[2]; acetonitrile, 30 °C",191 ± 4 mM
same,solubility at 48 h,"[2]; acetonitrile, 35 °C",222 ± 3 mM
same,solubility at 48 h,"[2]; acetonitrile, 40 °C",250 ± 4 mM
same,"Cp∙10^2, solubility of pure component",[2]; acetonitrile,14.2±0.3 mol/l
same,solubility at 48 h,"[2]; methanol, 20 °C",220 ± 2 mM
same,solubility at 48 h,"[2]; methanol, 25 °C",248 ± 2 mM
same,solubility at 48 h,"[2]; methanol, 30 °C",285 ± 2 mM
same,solubility at 48 h,"[2]; methanol, 35 °C",323 ± 3 mM
same,solubility at 48 h,"[2]; methanol, 40 °C",356 ± 1 mM
same,"Cp∙10^2, solubility of pure component",[2]; methanol,22.0±0.2 mol/l
same,"log(S0), intrinsic solubility","[3]; 2-propanol, ref [6]",-1.36 mol⋅L-1
same,"log(S0), intrinsic solubility","[3]; 2-propanol, ref [10]",-1.3 mol⋅L-1
same,"log(S0), intrinsic solubility","[3]; Acetone, ref [6]",-1.27 mol⋅L-1
same,"log(S0), intrinsic solubility","[3]; Ethanol, ref [6]",-0.97 mol⋅L-1
same,"log(S0), intrinsic solubility","[3]; Ethanol, ref [10]",-0.85 mol⋅L-1
same,"log(S0), intrinsic solubility","[3]; Ethyl acetate, ref [6]",-1.32 mol⋅L-1
same,"log(S0), intrinsic solubility","[3]; Ethyl acetate, ref [10]",-1.31 mol⋅L-1
same,"log(S0), intrinsic solubility","[3]; Methanol, ref [6]",-0.49 mol⋅L-1
NC(=O)c1ccccn1.O=C1CN(N=Cc2ccc([N+](=O)[O-])o2)C(=O)N1 [[Nitrofurantoin + Picolinamide] (1:1)],TΔformS,"[1]; 298 K, ref [19]",0.14 ± 0.19 kcal/mol
same,ΔformG,"[1]; 298 K, ref [19]",-1.17 ± 0.12 kcal/mol
same,ΔformH,"[1]; 298 K, ref [19]",-1.05 ± 0.17 kcal/mol
same,TΔformS,"[1]; 298 K, ref [19], listed as 12",≈ 0 kJ·mol-1
NC(=O)N1c2ccccc2C=Cc2ccccc21.NC(=O)c1ccncc1 [[CBZ + isonicotinamide] (1:1)],TΔformS,"[1]; 298 K, ref [22]",5.26 ± 0.598 kcal/mol
same,ΔformG,"[1]; 298 K, ref [22]",-0.502 ± 0.024 kcal/mol
same,ΔformH,"[1]; 298 K, ref [22]",4.76 ± 0.454 kcal/mol
NC(=O)c1cnccn1.Nc1ccc(C(=O)O)cc1,TΔformS,"[1]; 298 K, ref [14]",-8.01 ± 0.765 kcal/mol
same,ΔformG,"[1]; 298 K, ref [14]",-1.46 ± 0.072 kcal/mol
same,ΔformH,"[1]; 298 K, ref [14]",-9.46 ± 0.693 kcal/mol
NC(=O)N1c2ccccc2C=Cc2ccccc21.NC(=O)c1ccccc1 [[CBZ + Benzamide] (1:1)],TΔformS,"[1]; 298 K, ref [22]",7.29 ± 0.693 kcal/mol
same,ΔformG,"[1]; 298 K, ref [22]",-1.15 ± 0.072 kcal/mol
same,ΔformH,"[1]; 298 K, ref [22]",6.14 ± 0.454 kcal/mol
Cc1cc(O)c2c(c1)C(=O)c1cc(O)cc(O)c1C2=O [Emodin],"log(S0), intrinsic solubility","[3]; 2-propanol, ref [6]",-1.68 mol⋅L-1
same,"log(S0), intrinsic solubility","[3]; Acetone, ref [6]",-1.29 mol⋅L-1
same,"log(S0), intrinsic solubility","[3]; Ethanol, ref [6]",-1.74 mol⋅L-1
same,"log(S0), intrinsic solubility","[3]; Ethyl acetate, ref [6]",-1.43 mol⋅L-1
NC(=O)c1ccccc1N.O=C1CN(N=Cc2ccc([N+](=O)[O-])o2)C(=O)N1,TΔformS,"[1]; 298 K, ref [19]",0.311 ± 0.263 kcal/mol
same,ΔformG,"[1]; 298 K, ref [19]",-1.08 ± 0.12 kcal/mol
same,ΔformH,"[1]; 298 K, ref [19]",-0.789 ± 0.19 kcal/mol
same,TΔformS,"[1]; 298 K, ref [19], listed as 13",≈ 0 kJ·mol-1
NC(=O)c1cccnc1 [Nicotinamide],"log(S0), intrinsic solubility","[3]; 2-propanol, ref [10]",-0.2 mol⋅L-1
same,"log(S0), intrinsic solubility","[3]; Ethanol, ref [10]",0.04 mol⋅L-1
same,"log(S0), intrinsic solubility","[3]; Ethyl acetate, ref [10]",-0.96 mol⋅L-1
COc1ccc(C(C)=O)c(O)c1 [Paeonol],"log(S0), intrinsic solubility","[3]; 2-propanol, ref [6]",-0.12 mol⋅L-1
same,"log(S0), intrinsic solubility","[3]; Ethanol, ref [6]",0.08 mol⋅L-1
same,"log(S0), intrinsic solubility","[3]; Methanol, ref [6]",0.22 mol⋅L-1
NCC(=O)O.O=C(O)/C=C\C(=O)O [[Glycine + Maleic acid] (1:1)],TΔformS,"[1]; 298 K, ref [17]",-1.36 ± 0.239 kcal/mol
same,ΔformG,"[1]; 298 K, ref [17]",-1.29 ± 0.096 kcal/mol
same,ΔformH,"[1]; 298 K, ref [17]",-2.65 ± 0.22 kcal/mol
O=C(O)CCCC(=O)O [Glutaric acid],"log(S0), intrinsic solubility","[3]; 2-propanol, ref [10]",0.56 mol⋅L-1
same,"log(S0), intrinsic solubility","[3]; Ethanol, ref [10]",0.45 mol⋅L-1
same,"log(S0), intrinsic solubility","[3]; Ethyl acetate, ref [10]",0 mol⋅L-1
Cc1cc(C)nc(NS(=O)(=O)c2ccc(N)cc2)n1.O=C(O)c1ccccc1O [[Sulfamethazine + salicylic acid] (1:1)],TΔformS,"[1]; 293 K, ref [21]",7.1 kcal/mol
same,ΔformG,"[1]; 293 K, ref [21]",-1.7 kcal/mol
same,ΔformH,"[1]; 293 K, ref [21]",5.52 kcal/mol
NC(=O)c1ccncc1.O=C1CN(N=Cc2ccc([N+](=O)[O-])o2)C(=O)N1 [[Nitrofurantoin + Isonicotinamide] (1:1)],TΔformS,"[1]; 298 K, ref [19]",1.43 ± 0.17 kcal/mol
same,ΔformG,"[1]; 298 K, ref [19]",-1.12 ± 0.096 kcal/mol
same,ΔformH,"[1]; 298 K, ref [19]",0.311 ± 0.14 kcal/mol
NC(=O)N1c2ccccc2C=Cc2ccccc21.O=C1NS(=O)(=O)c2ccccc21 [[CBZ + Saccharin] (1:1)],TΔformS,"[1]; 306 K, ref [15]",-0.311 kcal/mol
same,ΔformG,"[1]; 306 K, ref [15]",-1.1 kcal/mol
same,ΔformH,"[1]; 306 K, ref [15]",-1.41 ± 0.22 kcal/mol
Cc1ccc(-c2cc(C(F)(F)F)nn2-c2ccc(S(N)(=O)=O)cc2)cc1.NC(=O)c1cccnc1 [[Celecoxib + Nicotinamide] (1:1)],TΔformS,"[1]; 298 K, ref [20]",1.65 ± 0.478 kcal/mol
same,ΔformG,"[1]; 298 K, ref [20]",-0.0837 ± 0.012 kcal/mol
same,ΔformH,"[1]; 298 K, ref [20]",1.55 ± 0.359 kcal/mol
CNC(=O)c1cc(Oc2ccc(NC(=O)Nc3ccc(Cl)c(C(F)(F)F)c3)cc2)ccn1.O=c1[nH]cc(F)c(=O)[nH]1 [[Sorafenib + 5-fluorouracil] (1:1)],TΔformS,"[1]; 303 K, ref [18]",0.0048 ± 0.024 kcal/mol
same,ΔformG,"[1]; 303 K, ref [18]",-1.14 ± 0.022 kcal/mol
same,ΔformH,"[1]; 303 K, ref [18]",-1.14 ± 0.017 kcal/mol
same,TΔformS,"[1]; 303 K, ref [18], listed as 11",≈ 0 kJ·mol-1
NC(=O)c1ccccc1O.O=C1CN(N=Cc2ccc([N+](=O)[O-])o2)C(=O)N1 [[Nitrofurantoin + Salicylamide] (1:1)],TΔformS,"[1]; 298 K, ref [19]",0.072 ± 0.17 kcal/mol
same,ΔformG,"[1]; 298 K, ref [19]",-0.14 ± 0.096 kcal/mol
same,ΔformH,"[1]; 298 K, ref [19]",-0.072 ± 0.14 kcal/mol
same,TΔformS,"[1]; 298 K, ref [19], listed as 14",≈ 0 kJ·mol-1
COc1cc(C=NNC(=O)c2ccncc2)ccc1O.O=C1NS(=O)(=O)c2ccccc21 [[Vanillin isoniazid + Saccharin] (1:1)],TΔformS,"[1]; 298 K, ref [13]",-1.05 ± 0.454 kcal/mol
same,ΔformG,"[1]; 298 K, ref [13]",-2.17 ± 0.19 kcal/mol
same,ΔformH,"[1]; 298 K, ref [13]",-3.23 ± 0.263 kcal/mol
CC(O)Cc1nsc(Nc2cccc(Cl)c2)n1.COc1cc(C(=O)O)ccc1O (centres unmarked) [[XIa+Vanillic acid] (1:1)],TΔformS,"[1]; 298 K, ref [12]",-1.24 ± 0.311 kcal/mol
same,ΔformG,"[1]; 298 K, ref [12]",-1.27 ± 0.096 kcal/mol
same,ΔformH,"[1]; 298 K, ref [12]",-2.51 ± 0.22 kcal/mol
CC(O)(CS(=O)(=O)c1ccc(F)cc1)C(=O)Nc1ccc(C#N)c(C(F)(F)F)c1.NC(=O)c1ccccc1O (centres unmarked) [[Bicalutamide + Salicylamide] (1:1)],TΔformS,"[1]; 298 K, ref [11]",-2.2 ± 0.19 kcal/mol
same,ΔformG,"[1]; 298 K, ref [11]",-0.526 ± 0.072 kcal/mol
same,ΔformH,"[1]; 298 K, ref [11]",-2.72 ± 0.12 kcal/mol
NC(=O)N1c2ccccc2C=Cc2ccccc21.NC(=O)c1ccc(O)cc1 [[CBZ + 4-Hydroxybenzamide] (1:1)],TΔformS,"[1]; 298 K, ref [22]",-1.36 ± 0.12 kcal/mol
same,ΔformG,"[1]; 298 K, ref [22]",-1.6 ± 0.12 kcal/mol
same,ΔformH,"[1]; 298 K, ref [22]",-2.96 ± 0.22 kcal/mol
O=C(NN=Cc1ccccc1O)c1ccncc1.O=C1NS(=O)(=O)c2ccccc21 [[Salinazid + Saccharin] (1:1)],TΔformS,"[1]; 298 K, ref [13]",-2.65 ± 0.382 kcal/mol
same,ΔformG,"[1]; 298 K, ref [13]",-1.74 ± 0.14 kcal/mol
same,ΔformH,"[1]; 298 K, ref [13]",-4.4 ± 0.239 kcal/mol
"NC(=O)N1c2ccccc2C=Cc2ccccc21.O [carbamazepine hydrate, reference compound]",solubility,[4],(8.30 ± 0.02)·10^−4 mol·l^−1
CC(O)(CS(=O)(=O)c1ccc(F)cc1)C(=O)Nc1ccc(C#N)c(C(F)(F)F)c1.NC(=O)c1ccccc1 (centres unmarked) [[Bicalutamide + Benzamide] (1:1)],TΔformS,"[1]; 298 K, ref [11]",-3.87 ± 0.263 kcal/mol
same,ΔformG,"[1]; 298 K, ref [11]",-0.813 ± 0.072 kcal/mol
same,ΔformH,"[1]; 298 K, ref [11]",-4.68 ± 0.19 kcal/mol
